Results taken from ChEMBL document CHEMBL3045787, “Synthesis of novel 1,4-naphthoquinone derivatives: antibacterial and antifungal agents” (2013).
In brackets after ≈: the same amount, converted by molar mass. Activity calls are given as the source filed them. No cut-off for these calls is given here.

How the values were obtained:
Escherichia coli [1] = experiment: Antibacterial activity against Escherichia coli B 906 assessed as growth inhibition at 0.5% after 24 hr by agar disk diffusion method; format: functional
Escherichia coli [2] = experiment: Antibacterial activity against Escherichia coli B 906 assessed as growth inhibition at 0.1% after 24 hr by agar disk diffusion method; format: functional
Aspergillus niger [3] = experiment: Antifungal activity against Aspergillus niger assessed as growth inhibition after 24 to 72 hr by serial dilution method; format: functional
Yamadazyma tenuis [4] = experiment: Antifungal activity against Candida tenuis assessed as growth inhibition after 24 to 72 hr by serial dilution method; format: functional
Mycobacterium [5] = experiment: Antibacterial activity against Mycobacterium luteum B-917 assessed as growth inhibition after 24 to 72 hr by serial dilution method; format: functional
Staphylococcus aureus [6] = experiment: Antibacterial activity against Staphylococcus aureus 209-P assessed as growth inhibition after 24 to 72 hr by serial dilution method; format: functional
Escherichia coli [7] = experiment: Antibacterial activity against Escherichia coli B 906 assessed as growth inhibition after 24 to 72 hr by serial dilution method; format: functional, organism-based
Aspergillus niger [8] = experiment: Antifungal activity against Aspergillus niger assessed as growth inhibition at 0.1% after 48 to 72 hr by agar disk diffusion method; format: functional
Aspergillus niger [9] = experiment: Antifungal activity against Aspergillus niger assessed as growth inhibition at 0.5% after 48 to 72 hr by agar disk diffusion method; format: functional
Yamadazyma tenuis [10] = experiment: Antifungal activity against Candida tenuis assessed as growth inhibition at 0.1% after 48 to 72 hr by agar disk diffusion method; format: functional
Yamadazyma tenuis [11] = experiment: Antifungal activity against Candida tenuis assessed as growth inhibition at 0.5% after 48 to 72 hr by agar disk diffusion method; format: functional
Mycobacterium [12] = experiment: Antibacterial activity against Mycobacterium luteum B-917 assessed as growth inhibition at 0.1% after 24 hr by agar disk diffusion method; format: functional
Mycobacterium [13] = experiment: Antibacterial activity against Mycobacterium luteum B-917 assessed as growth inhibition at 0.5% after 24 hr by agar disk diffusion method; format: functional
Staphylococcus aureus [14] = experiment: Antibacterial activity against Staphylococcus aureus 209-P assessed as growth inhibition at 0.1% after 24 hr by agar disk diffusion method; format: functional
Staphylococcus aureus [15] = experiment: Antibacterial activity against Staphylococcus aureus 209-P assessed as growth inhibition at 0.5% after 24 hr by agar disk diffusion method; format: functional

MIC (Aspergillus niger [3]) [µg/mL]	MIC (Yamadazyma tenuis [4]) [µg/mL]	MIC (Mycobacterium [5]) [µg/mL]	MIC (Staphylococcus aureus [6])	MIC (Escherichia coli [7])	Structure (SMILES)	diameter of the inhibition zone (DIZ) (Escherichia coli [1]) [mm]	diameter of the inhibition zone (DIZ) (Escherichia coli [2]) [mm]	diameter of the inhibition zone (DIZ) (Aspergillus niger [8]) [mm]	diameter of the inhibition zone (DIZ) (Aspergillus niger [9]) [mm]	diameter of the inhibition zone (DIZ) (Yamadazyma tenuis [10]) [mm]	diameter of the inhibition zone (DIZ) (Yamadazyma tenuis [11]) [mm]	diameter of the inhibition zone (DIZ) (Mycobacterium [12]) [mm]	diameter of the inhibition zone (DIZ) (Mycobacterium [13]) [mm]	diameter of the inhibition zone (DIZ) (Staphylococcus aureus [14]) [mm]	diameter of the inhibition zone (DIZ) (Staphylococcus aureus [15]) [mm]
15.6 (≈ 28.2 µM)	3.9 (≈ 7.06 µM)	1.9 (≈ 3.44 µM)	500 µg/mL (≈ 905 µM)	inactive	O=C1C2=C(SCCCCSC3=C(SCCCCS2)C(=O)c2ccccc2C3=O)C(=O)c2ccccc21	0	0	16.4	19.4	9.7	11.4	21.4	25.4	10.4	12
7.8 (≈ 25.1 µM)	1.9 (≈ 6.11 µM)	7.8 (≈ 25.1 µM)	inactive	inactive	COC(=O)CCSC1=C(Cl)C(=O)c2ccccc2C1=O	0	0	11	10.4	12.4	13	9	18	6	8
